Reference: patent US8513271B2, “Pyrimidine compounds as delta opioid receptor modulators” (Janssen Pharmaceutica, NV, priority 2009, dated 2013)
Read-outs that look alike come from different tables or passages of the source.

Target: T1, delta opioid receptor (Mus musculus, UniProt P32300)
T1 construct: NG108-15 cell membranes were purchased from Applied Cell Sciences (Rockville, Md.); host or cells: NG108-15 cell membranes
Assay: [35S]GTPγS binding assay in NG108-15 cell membranes (delta opioid functional assay), 200 nM screen
Assay type: biochemical
Conditions: NG108-15 cell membranes; for EC50 / GTPγS δ-RelEfficacy @200 nM: averages if tested more than once; for GTPγS δ-opioid receptor Rel Efficacy: relative efficacy from dose response; for GTPγS δ-RelEfficacy @200 nM: 200 nM test compound, relative to calculated max of SNC80 dose response curve

[1] = read-out: GTPγS δ-opioid receptor EC50
[2] = GTPγS δ-opioid receptor EC50 (μM)

T1 sequence (P32300 whole entry): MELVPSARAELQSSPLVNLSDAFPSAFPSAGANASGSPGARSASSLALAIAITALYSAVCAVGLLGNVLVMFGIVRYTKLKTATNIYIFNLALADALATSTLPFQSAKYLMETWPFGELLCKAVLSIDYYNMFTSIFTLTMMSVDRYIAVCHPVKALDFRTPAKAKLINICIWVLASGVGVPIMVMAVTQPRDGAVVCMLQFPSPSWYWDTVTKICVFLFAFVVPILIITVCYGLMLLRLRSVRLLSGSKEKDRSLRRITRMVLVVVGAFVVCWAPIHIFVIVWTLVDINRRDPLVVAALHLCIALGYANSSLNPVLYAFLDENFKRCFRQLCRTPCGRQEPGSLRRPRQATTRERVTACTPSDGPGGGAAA

| SMILES | EC50 [1] | GTPγS δ-opioid receptor Rel Efficacy | EC50 [2] | GTPγS δ-RelEfficacy @200 nM |
| --- | --- | --- | --- | --- |
| COc1ccc(Oc2nc(-c3cncc(OC)c3)ncc2NC2CCCC(N)C2)cc1 (mixture of isomers) [Cpd 309] | 0.035 µM | 1.162 | – | – |
| COc1ccc(Oc2nc(-c3cncc(SC)c3)ncc2NC2CCCC(N)C2)cc1 (racemic) [Cpd 310] | – | 1.042 | 0.031 µM | – |
| COc1ccc(Oc2nc(-c3cccnc3)ncc2NC2CCCC(N)C2)cc1 (single isomer, unassigned) [Cpd 307] | – | 1.191 | 0.011 µM | 0.880 |
| COc1ccc(Oc2nc(-c3cccnc3)ncc2NC2CCCCC2N)cc1 (single isomer, unassigned) [Cpd 308] | – | – | – | 0.140 |
| COc1ccc(Oc2nc(-c3cncc(SC)c3)ncc2NC2CCCC(N)C2)cc1 (single isomer, unassigned) [Cpd 319] | – | 0.871 | 0.112 µM | – |
| COc1ccc(Oc2nc(-c3cccnc3)ncc2NC2CCCC(N)C2)cc1 (single isomer, unassigned) [Cpd 323] | – | 0.988 | 0.06 µM | – |
| CCN(CC)C(=O)c1cccc(Oc2nc(-c3cncc(F)c3)ncc2NC[C@@H]2CCCN2)c1 [Cpd 170] | – | – | – | 0.176 |
| O=C(c1cccc(Oc2nc(-c3cncc(F)c3)ncc2NC[C@@H]2CCCN2)c1)N1CCCC1 [Cpd 171] | – | – | – | 0.257 |
| O=C(c1cccc(Oc2nc(-c3cncc(F)c3)ncc2NC[C@@H]2CCCN2)c1)N1CCCCC1 [Cpd 172] | – | – | – | 0.246 |
| O=C(c1cccc(Oc2nc(-c3cncc(F)c3)ncc2NC[C@@H]2CCCN2)c1)N1CCOCC1 [Cpd 173] | – | – | – | 0.249 |
| CN1CCN(C(=O)c2cccc(Oc3nc(-c4cncc(F)c4)ncc3NC[C@@H]3CCCN3)c2)CC1 [Cpd 174] | – | – | – | 0.205 |
| CCN(CC)C(=O)c1ccc(Oc2nc(-c3cccnc3)ncc2NC[C@@H]2CCCN2)cc1 [Cpd 175] | – | – | – | 0.005 |
| O=C(c1ccc(Oc2nc(-c3cncc(F)c3)ncc2NC[C@@H]2CCCN2)cc1)N1CCCC1 [Cpd 176] | – | – | – | 0.112 |
| O=C(Nc1ccc(Oc2nc(-c3cccnc3)ncc2NC[C@@H]2CCCN2)cc1)OCc1ccccc1 [Cpd 177, (4-{2-Pyridin-3-yl-5-[(pyrrolidin-2-(S)-ylmethyl)-amino]-pyrimidin-4-yloxy}-phenyl)-carbamic acid benzyl ester] | 0.255 µM | 1.389 | – | 0.511 |
| Cc1ccc(Oc2nc(-c3cncc(F)c3)ncc2NC[C@@H]2CCCN2)cc1 [Cpd 178] | 0.3 µM | 1.239 | – | 0.578 |
| CCc1ccc(Oc2nc(-c3cncc(C#N)c3)ncc2NC[C@@H]2CCCN2)cc1 [Cpd 179] | 0.119 µM | 1.182 | – | 0.601 |
| CCc1ccc(Oc2nc(-c3cncc(Cl)c3)ncc2NC[C@@H]2CCCN2)cc1 [Cpd 180] | – | – | – | 0.250 |
| COc1ccc(Oc2nc(-c3cncnc3)ncc2N(C[C@@H]2CCCN2)C(C)=O)cc1 [Cpd 181, N-[4-(4-Methoxy-phenoxy)-[2,5′]bipyrimidinyl-5-yl]-N-pyrrolidin-2-(S)-ylmethyl-acetamide] | – | – | – | 0.139 |
| CCc1ccc(Oc2nc(-c3cncc(F)c3)ncc2NC[C@@H]2CCCN2)cc1 [Cpd 182] | 0.377 µM | 1.065 | – | 0.470 |
| Cc1ccc(Oc2nc(-c3cncc(C#N)c3)ncc2NC[C@@H]2CCCN2)cc1F [Cpd 183] | – | 1.091 | 0.091 µM | 0.723 |
| CCc1ccc(Oc2nc(-c3cccnc3)ncc2NC[C@@H]2CCCN2)cc1 [Cpd 184] | 0.418 µM | 1.271 | – | 0.497 |
| Cc1ccc(Oc2nc(-c3cncc(F)c3)ncc2NC[C@@H]2CCCN2)cc1F [Cpd 185] | 0.101 µM | 1.014 | – | 0.447 |
| Cc1ccc(Oc2nc(-c3cncc(Cl)c3)ncc2NC[C@@H]2CCCN2)cc1F [Cpd 186] | 0.331 µM | 1.113 | – | 0.466 |
| Cc1ccc(Oc2nc(-c3cccnc3)ncc2NC[C@@H]2CCCN2)cc1F [Cpd 187] | 0.16 µM | 1.104 | – | 0.497 |
| O=C(Nc1cccc(Oc2nc(-c3cccnc3)ncc2NC[C@@H]2CCCN2)c1)OCc1ccccc1 [Cpd 188] | 0.219 µM | 1.950 | – | 0.779 |
| Cc1ccc(Oc2nc(-c3cncc(C#N)c3)ncc2NC[C@@H]2CCCN2)c(F)c1F [Cpd 189] | – | – | – | 0.375 |
| Cc1ccc(Oc2nc(-c3cncc(Cl)c3)ncc2NC[C@@H]2CCCN2)c(F)c1F [Cpd 190] | – | – | – | 0.222 |

| SMILES | EC50 [1] | GTPγS δ-opioid receptor Rel Efficacy | EC50 [2] | GTPγS δ-RelEfficacy @200 nM |
| --- | --- | --- | --- | --- |
| Cc1ccc(Oc2nc(-c3cncc(F)c3)ncc2NC[C@@H]2CCCN2)c(F)c1F [Cpd 191] | – | – | – | 0.410 |
| Cc1ccc(Oc2nc(-c3cccnc3)ncc2NC[C@@H]2CCCN2)c(F)c1F [Cpd 192] | – | – | – | 0.135 |
| COc1ccc(Oc2nc(-c3cncc(F)c3)ncc2NC[C@@H]2C[C@@H](F)CN2)cc1 [Cpd 193] | – | 1.090 | 0.032 µM | 0.801 |
| COc1ccc(Oc2nc(-c3cncc(Cl)c3)ncc2NC[C@@H]2C[C@@H](F)CN2)cc1 [Cpd 194] | – | 1.034 | 0.022 µM | 0.665 |
| CCc1ccc(Oc2nc(-c3cncc(C#N)c3)ncc2NC[C@@H]2C[C@@H](F)CN2)cc1 [Cpd 195] | 0.194 µM | 1.119 | – | 0.477 |
| COc1ccc(Oc2nc(-c3cccnc3)ncc2NC[C@@H]2C[C@@H](F)CN2)cc1 [Cpd 196] | – | 1.146 | 0.0693 µM | 0.800 |
| O=C(Nc1ccc(Oc2nc(-c3cncc(F)c3)ncc2NC[C@@H]2CCCN2)cc1)OCc1ccccc1 [Cpd 197] | 0.145 µM | 1.289 | – | 0.411 |
| Nc1ccc(Oc2nc(-c3cncc(F)c3)ncc2NC[C@@H]2CCCN2)cc1 [Cpd 198, [4-(4-Amino-phenoxy)-2-(5-fluoro-pyridin-3-yl)-pyrimidin-5-yl]-pyrrolidin-2-(S)-ylmethyl-amine] | 0.118 µM | 1.050 | – | 0.513 |
| COc1ccc(Oc2nc(-c3cncc(C#N)c3)ncc2N[C@H]2CCCNC2)cc1 [Cpd 199] | – | 1.140 | – | 0.615 |
| Cc1cccc(Oc2nc(-c3cncc(C#N)c3)ncc2NC[C@@H]2CCCN2)c1 [Cpd 200] | – | – | – | 0.289 |
| Cc1cccc(Oc2nc(-c3cncc(Cl)c3)ncc2NC[C@@H]2CCCN2)c1 [Cpd 201] | – | – | – | 0.148 |
| Cc1cccc(Oc2nc(-c3cncc(F)c3)ncc2NC[C@@H]2CCCN2)c1 [Cpd 202] | – | – | – | 0.122 |
| Cc1cccc(Oc2nc(-c3cccnc3)ncc2NC[C@@H]2CCCN2)c1 [Cpd 203] | – | – | – | 0.096 |
| COc1ccc(Oc2nc(-c3cncc(C#N)c3)ncc2NC[C@@H]2CCCN2)cc1C [Cpd 204] | – | 0.982 | 0.026 µM | 0.911 |
| COc1ccc(Oc2nc(-c3cncc(F)c3)ncc2NC[C@@H]2CCCN2)cc1C [Cpd 205] | – | 1.178 | 0.044 µM | 0.609 |
| N#Cc1cncc(-c2ncc(NC[C@@H]3CCCN3)c(Oc3ccc(CF)cc3)n2)c1 [Cpd 206] | – | – | – | 0.292 |
| COc1ccc(Oc2nc(-c3cncc(C#N)c3)ncc2N[C@H]2CCCNC2)cc1 [Cpd 207] | – | 1.047 | – | 0.963 |
| COc1ccc(Oc2nc(-c3cncc(C#N)c3)ncc2NC2CCNCC2)cc1 [Cpd 208] | – | – | – | 0.398 |
| c1cncc(Cc2ccc(Oc3nc(-c4cccnc4)ncc3NC[C@@H]3CCCN3)cc2)c1 [Cpd 209, [2-Pyridin-3-yl-4-(4-pyridin-3-ylmethyl-phenoxy)-pyrimidin-5-yl]-pyrrolidin-2-(S)-ylmethyl-amine] | – | – | – | 0.002 |
| COc1ccc(Oc2nc(-c3cncc(Cl)c3)ncc2NC[C@@H]2CCCN2)cc1C [Cpd 210] | – | 1.150 | 0.044 µM | 0.730 |
| COc1ccc(Oc2nc(-c3cccnc3)ncc2NC[C@@H]2CCCN2)cc1C [Cpd 211] | 0.106 µM | 1.050 | – | 0.814 |
| CC(=O)Nc1ccc(Oc2nc(-c3cncc(F)c3)ncc2NC[C@@H]2CCCN2)cc1 [Cpd 212] | – | 0.994 | 0.029 µM | – |
| CS(=O)(=O)Nc1ccc(Oc2nc(-c3cncc(F)c3)ncc2NC[C@@H]2CCCN2)cc1 [Cpd 213, N-(4-{2-(5-Fluoro-pyridin-3-yl)-5-[(pyrrolidin-2-(S)-ylmethyl)-amino]-pyrimidin-4-yloxy}-phenyl)-methanesulfonamide] | – | – | – | 0.079 |
| CS(=O)(=O)Nc1ccc(Oc2nc(-c3cccnc3)ncc2NC[C@@H]2CCCN2)cc1 [Cpd 214] | – | – | – | 0.115 |
| COc1ccc(Oc2nc(-c3cncc(C#N)c3)ncc2NCC2CNC2)cc1 [Cpd 215] | 0.128 µM | 1.002 | – | 0.674 |
| O=CNc1ccc(Oc2nc(-c3cccnc3)ncc2NC[C@@H]2CCCN2)cc1 [Cpd 216] | 0.494 µM | 0.969 | – | 0.406 |
